Reference: patent US9987294B2, “Mitochondria-targeted anti-tumor agents” (University of Massachusetts, priority 2007, dated 2018)
Entries after “also recorded” stand apart in the source; their conditions may differ. Where a SMILES comes first, the peptide text is derived from it. [ ]: non-standard residue; d: D form.

Legend:
HeLa cells [1] = assay: Cell viability by MTT, HeLa cells; details: 50 μM; cultures not treated with CsA
[2] = test system: mitochondria isolated from WS-1 normal human fibroblasts; assay: Mitochondrial membrane potential of TMRM-loaded isolated mitochondria; format: biochemical
Method: (§1) Raji cells were treated with Shepherdin or control scrambled peptidomimetic (100 μM) or 17-AAG (5 μM), loaded with the mitochondrial membrane potential-sensitive fluorescent dye JC-1, and analyzed for changes in green/red fluorescence ratio by flow cytometry. For experiments in a cell-free system, purified mitochondria isolated from primary normal cells, various tumor cells types, or normal mouse organs were suspended in SB buffer. […] For these experiments, TMRM-loaded mitochondria in SB buffer were allowed to reach stable fluorescence, which was set as fully polarized state (maximum membrane potential). The fluorescence intensity after treatment with 2 mM CaCl2 was set as minimum membrane potential (fully depolarized state). Changes in fluorescence intensity after each treatment were plotted as a ratio between maximum and minimum membrane potential.
Alternatively, H460 cells were labeled with the fluorescent dye JC-1 (Molecular Probes), and analyzed for changes in red/green (F1-2/F1-1) fluorescence ratio after treatment with the various agents, by multiparametric flow cytometry. Cytochrome c content in pellets or supernatants of drug-treated isolated mitochondria was determined by Western blotting.

Raji cells = assay: Mitochondrial membrane potential in JC-1-loaded cells (flow cytometry); format: cell-based, human; details: within five minutes of addition
Method: as §1

HeLa cells [3] = assay: Time-lapse videomicroscopy of cell morphology; format: cell-based, human; details: within minutes
Method: For time lapse videomicroscopy, HeLa cells were maintained in 35 mm glass-bottom tissue-culture dishes (Mat-tek). Prior to imaging, cells were incubated with 400 nM CM-H2XRos (M7513, Molecular Probes) under growth conditions for 15 minutes. After washes, fresh culture medium was added, and cells were imaged in an environmental chamber (PDMI-2; Harvard Apparatus) in complete medium with CO2 exchange (0.5 liters/minute) at 37° C. Cells were imaged every 1 minute using a 100× phase contrast lens with a green interference filter on an inverted microscope (Olympus IX-70). Images were captured on a CoolSnap HQ CCD camera (Roper Scientific) and concatenated using Metamorph software (Universal Imaging Corp.). Cells were imaged in the absence of any reagent for the first 10 minutes of the time lapse, at which point Shepherdin or cell permeable scrambled peptidomimetic was added dropwise in between acquisitions. Phase-contrast images of mitochondria were verified by the presence of CM-H2XRos labeling.

[4] = test system: primary human sarcoma sample mitochondria; assay: Cytochrome c release from isolated mitochondria (Western blotting); format: biochemical
Method: (§2) Tumor cell types were treated with controls or the various Hsp90 antagonists, and cytosolic extracts were harvested at increasing time intervals between 5-30 minutes and analyzed by Western blotting. For experiments in a cell-free system, purified mitochondria (20 μg) were suspended in 500 μl of SB buffer (0.2 M sucrose, 10 mM Tris-MOPS, pH 7.4, 5 mM succinate, 1 mM sodium phosphate, 10 μM EGTA-Tris, and 2 μM rotenone). Samples were treated with controls or the various Hsp90 antagonists for 20 minutes at 22° C. At the end of each incubation reaction, mitochondria and supernatants were separated by centrifugation at 6,000×g for 10 minutes, and analyzed by Western blotting.

[5] = test system: mitochondria isolated from a p53−/− mouse lymphoma specimen; assay: as above; format: biochemical
Method: as §2

[6] = test system: mitochondria isolated from normal NIH3T3 cells; assay: Mitochondrial membrane potential of TMRM-loaded isolated mitochondria; format: biochemical
Method: as §1, with “potential. In some experiments, increasing concentrations (10-100 μg) of TMRM-loaded mitochondria isolated from HeLa or MCF-7 cells were diluted in 3 ml of SB buffer, normalized to a total protein concentration of 500 μg with BSA, and analyzed for changes in membrane potential in response to control or the various Hsp90 antagonists.” for “potential.”

[7] = test system: normal human fibroblast cell types (WS-1, HGF, HFF); assay: Cell viability by MTT, normal human fibroblast cell types
Method: Changes in protein expression in the various experiments of siRNA targeting were assessed by Western blotting. For analysis of TRAP-1-directed cytoprotection, primary nontransformed human fibroblasts HFF and WS-1 were transfected with control pcDNA3 or TRAP-1 cDNA by lipofectamine for 24 hours, exposed to increasing concentrations (0-1 μM) of the cell death stimulus staurosporine (STS), and analyzed for cell viability after additional 24 hours incubation by MTT. For analysis of apoptosis, p53+/+ or p53−/−HCT116 cells were treated with control or ANT-GA (100 μM), and analyzed for DEVDase activity (CaspaTag) and propidium iodide staining by simultaneous multiparametric flow cytometry, as described (Dohi et al., J. Clin. Invest. 114(8):1117-27, (2004); Plescia et al., Cancer Cell, 7:457-468, (2005)).

[8] = test system: mitochondria isolated from Raji lymphoblastoid cells; assay: Cytochrome c release from isolated mitochondria (Western blotting); format: biochemical, human
Method: as §2

HeLa cells [9] = assay: Cytochrome c release into the cytosol of treated tumor cells (Western blotting); format: cell-based, human
tumor cells = assay: Cell viability by MTT, tumor cell types; format: cell-based; details: 1 hour exposure; MTT
[10] = test system: mitochondria purified from B-lymphoblastoid Raji cells; assay: Mitochondrial membrane potential of TMRM-loaded isolated mitochondria; format: biochemical, human
Method: as §1

[11] = test system: purified HeLa cell mitochondria; assay: as above; format: biochemical, human; details: TMRM-loaded HeLa cell (tumor) mitochondria
Method: as §1

[12] = test system: normal mouse liver mitochondria; assay: as above; format: biochemical
Method: as §1

[13] = test system: normal mouse brain mitochondria; assay: as above; format: biochemical
Method: as §1

[14] = test system: Ras-transformed NIH3T3 mitochondria; assay: as above; format: biochemical
Method: as §1

[15] = test system: normal mouse liver mitochondria; assay: Cytochrome c and Smac content of isolated mitochondria (Western blotting); format: biochemical
Method: as §2

## CSCC[C@@H](NC(=O)[C@@H](CCCCN)NC(=O)[C@@H](Cc1c[nH]c2ccccc12)NC(=O)[C@@H](CCCCN)NC(=O)[C@H](N)CCCCN)C(=O)N[C@H](CCCNC(=N)N)C(=O)N[C@H](CCCNC(=N)N)C(=O)N[C@H](CC(N)=O)C(=O)N[C@H](CCC(N)=O)C(=O)N[C@H](Cc1ccccc1)C(=O)N[C@H](Cc1c[nH]c2ccccc12)C(=O)N[C@@H](C(=O)N[C@H](CCCCN)C(=O)N[C@@H](C(=O)N[C@H](CCC(N)=O)C(=O)N[C@H](CCCNC(=N)N)C(=O)N[C@H](CC(C)C)C(=O)N[C@H](Cc1ccccc1)C(=O)N[C@H](C)C(=O)N[C@H](CS)C(=O)NCC(=O)N[C@H](CO)C(=O)N[C@H](CO)C(=O)N[C@H](Cc1c[nH]cn1)C(=O)N[C@H](CCCCN)C(N)=O)C(C)C)C(C)C [Sheph-ANT] (H-[dK][dK][dW][dK][dM][dR][dR][dN][dQ][dF][dW][dV][dK][dV][dQ][dR][dL][dF][dA][dC]G[dS][dS][dH][dK]-NH2; N-terminus and C-terminus assumed)
HeLa cells [1]
  cell killing: complete cell killing
[2]; WS-1 normal human fibroblasts
  membrane potential of mitochondria: did not cause loss of membrane potential
[2]; glucose-deprived WS-1, compared with Scram-ANT
  membrane potential of mitochondria: did not significantly affect membrane potential
[2]; summary for normal cells (FIGS. 4A, C, E, G)
  mitochondrial membrane potential of normal cells: did not affect mitochondrial membrane potential of normal cells over background levels
Raji cells
  mitochondrial membrane potential in tumor cells: induced loss of mitochondrial membrane potential in tumor cells
HeLa cells [3]
  morphological features of apoptosis: exhibited within minutes morphological features of apoptosis
[4]
  release of cytochrome c from mitochondria: concentration-dependent release of cytochrome c; also recorded: increases Cyt c release into the supernatant in a dose-dependent manner
[5]
  cytochrome c release from mitochondria: induced cytochrome c release
[6]
  membrane potential of mitochondria: had no effect on mitochondria isolated from normal NIH3T3 cells
[7]
  viability of normal human fibroblast cell types: did not affect the viability of various normal human fibroblast cell types
[8]
  release of cytochrome c from mitochondria: concentration-dependent release of cytochrome c; also recorded: reduces mitochondrial Cyt c in a dose-dependent manner
HeLa cells [9]
  cytochrome c release into the cytosol: discharge of mitochondrial cytochrome c in the cytosol
Tumor cells
  tumor cell viability / killing: sufficient to kill disparate tumor cell types in a concentration-dependent manner; also recorded: triggered selective tumor cell death
[10]
  membrane potential of mitochondria: readily depolarized mitochondria
[11]
  mitochondrial membrane potential: caused sudden loss of mitochondrial membrane potential; also recorded: induces a change in mitochondrial membrane potential
[12]
  membrane potential of mitochondria: did not affect membrane potential; also recorded: had no effect on normal liver mitochondria, with or without CsA
[13]
  membrane potential of mitochondria: did not affect membrane potential
[14]
  membrane potential of mitochondria: readily depolarized Ras-transformed NIH3T3 mitochondria
[15]
  cytochrome c or Smac levels of mitochondria: had no effect on cytochrome c or Smac levels
